Source: US10538555B2, “Macrocyclic inhibitors of the PD-1/PD-L1 and CD80(B7-1)/PD-L1 protein/protein interactions” (BRISTOL-MYERS SQUIBB COMPANY, priority 2014, dated 2020)
Where two headings read alike, the source gives them in different places. Where a SMILES comes first, the peptide text is derived from it. Bridges are numbered along the chain shown (N, C = ends). [ ]: non-standard residue; d: D form. ξ: configuration not given here. Bta = N[C@@H](Cc1csc2ccccc12)C(=O)O; Hyp = O=C(O)[C@@H]1C[C@@H](O)CN1; NMeF = CN[C@@H](Cc1ccccc1)C(=O)O; NMeNle = CCCC[C@H](NC)C(=O)O; NMeM = CN[C@@H](CCSC)C(=O)O; hSer = N[C@@H](CCO)C(=O)O; NMeA = CN[C@@H](C)C(=O)O; Orn = NCCC[C@H](N)C(=O)O; Dab = NCC[C@H](N)C(=O)O; ξC = NC(CS)C(=O)O

Target: T1, Human PD-L1/PD-1 (Homo sapiens, UniProt Q9NZQ7)
T1 construct: TVMV protease cleavage site (C); made in house; host or cells: HEK293T cells
Test: HTRF Human PD-L1/PD-1 binding assay (PD-1-Ig/PD-L1-His)
Details: PD-L1-His 10 nM, PD-1-Ig 20 nM
How it was run: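 Compound preincubated 15 min with PD-L1-His (10 nM final), then PD-1-Ig (20 nM final) added for 15 min in dPBS with 0.1% BSA and 0.05% Tween-20. Detection by Eu-cryptate anti-Ig (1 nM) and APC anti-His (20 nM) after 30 min; 665/620 nm HTRF ratio. Proteins expressed in HEK293T.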

[1] = class symbol, read-out: HTRF Human PD-L1/PD-1 Binding Assay IC50 Range
[2] = read-out: HTRF Human PD-L1/PD-1 Binding Assay IC50

T1 sequence (Q9NZQ7 with tags, fused parts or gaps): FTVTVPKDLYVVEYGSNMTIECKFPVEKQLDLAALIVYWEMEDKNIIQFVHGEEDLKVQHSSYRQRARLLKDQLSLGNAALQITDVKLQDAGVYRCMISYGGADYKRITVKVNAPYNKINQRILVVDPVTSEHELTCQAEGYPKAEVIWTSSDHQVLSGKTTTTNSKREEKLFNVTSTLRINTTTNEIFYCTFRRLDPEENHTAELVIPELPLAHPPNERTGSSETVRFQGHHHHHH

Row | SMILES | IC50 [1] [nM] | IC50 [2] [nM]
1 | CCCC[C@H]1C(=O)N(C)[C@@H](CCCC)C(=O)N[C@@H](CCCNC(=N)N)C(=O)NC(C(=O)NCC(N)=O)CSCC(=O)N[C@@H](Cc2ccc(O)cc2)C(=O)N(C)[C@@H](C)C(=O)N[C@@H](CC(N)=O)C(=O)N2CCC[C@H]2C(=O)N[C@@H](CCO)C(=O)N[C@@H](CC(C)C)C(=O)N2CCC[C@H]2C(=O)N[C@@H](Cc2c[nH]c3ccccc23)C(=O)N[C@@H](CO)C(=O)N[C@@H](Cc2c[nH]c3ccccc23)C(=O)N1C (stereo partly shown) [Example 9148] ({CH2CO}-Y[NMeA]NP[hSer]LPWSW[NMeNle][NMeNle]R[ξC]G-NH2; thioether N-14) | 1000 to 10000 | 
2 | CCCC[C@H]1C(=O)N(C)[C@@H](CCCC)C(=O)N[C@@H](CCCNC(=N)N)C(=O)NC(C(=O)NCC(N)=O)CSCC(=O)N[C@@H](Cc2ccc(O)cc2)C(=O)N(C)[C@@H](C)C(=O)N[C@@H](CC(N)=O)C(=O)N2CCC[C@H]2C(=O)N[C@@H](CCO)C(=O)N[C@@H](CC(C)C)C(=O)N2CCC[C@H]2C(=O)N[C@@H](Cc2c[nH]c3ccccc23)C(=O)N[C@@H](CO)C(=O)N[C@@H](Cc2csc3ccccc23)C(=O)N1C (stereo partly shown) [Example 9149] ({CH2CO}-Y[NMeA]NP[hSer]LPWS[Bta][NMeNle][NMeNle]R[ξC]G-NH2; thioether N-14) |  | 1000
3 | CCCC[C@H]1C(=O)N(C)[C@@H](CCCC)C(=O)N[C@@H](CCCNC(=N)N)C(=O)NC(C(=O)NCC(N)=O)CSCC(=O)N[C@@H](Cc2ccc(O)cc2)C(=O)N(C)[C@@H](C)C(=O)N[C@@H](CC(N)=O)C(=O)N2CCC[C@H]2C(=O)N[C@@H](CCO)C(=O)N[C@@H](CC(C)C)C(=O)N2C[C@H](O)C[C@H]2C(=O)N[C@@H](Cc2c[nH]c3ccccc23)C(=O)N[C@@H](CO)C(=O)N[C@@H](Cc2csc3ccccc23)C(=O)N1C (stereo partly shown) [Example 9150] ({CH2CO}-Y[NMeA]NP[hSer]L[Hyp]WS[Bta][NMeNle][NMeNle]R[ξC]G-NH2; thioether N-14) | 1 to 9.9 | 
4 | CCCC[C@H]1C(=O)N(C)[C@@H](CCCC)C(=O)N[C@@H](CCCN)C(=O)NC(C(=O)NCC(N)=O)CSCC(=O)N[C@@H](Cc2ccc(O)cc2)C(=O)N(C)[C@@H](C)C(=O)N[C@@H](CC(N)=O)C(=O)N2CCC[C@H]2C(=O)N[C@@H](CC(N)=O)C(=O)N[C@@H](CC(C)C)C(=O)N2CCC[C@H]2C(=O)N[C@@H](Cc2c[nH]c3ccccc23)C(=O)N[C@@H](CO)C(=O)N[C@@H](Cc2c[nH]c3ccccc23)C(=O)N1C (stereo partly shown) [Example 9155] ({CH2CO}-Y[NMeA]NPNLPWSW[NMeNle][NMeNle][Orn][ξC]G-NH2; thioether N-14) | 1 to 9.9 | 
5 | CCCC[C@H]1C(=O)N(C)[C@@H](CCCC)C(=O)N[C@@H](CCCN)C(=O)NC(C(=O)NCC(N)=O)CSCC(=O)N[C@@H](Cc2ccc(O)cc2)C(=O)N(C)[C@@H](C)C(=O)N[C@@H](CC(N)=O)C(=O)N2CCC[C@H]2C(=O)N[C@@H](CC(N)=O)C(=O)N[C@@H](CC(C)C)C(=O)N2CCC[C@H]2C(=O)N[C@@H](Cc2c[nH]c3ccccc23)C(=O)N[C@@H](CO)C(=O)N[C@@H](Cc2csc3ccccc23)C(=O)N1C (stereo partly shown) [Example 9156] ({CH2CO}-Y[NMeA]NPNLPWS[Bta][NMeNle][NMeNle][Orn][ξC]G-NH2; thioether N-14) | 1 to 9.9 | 
6 | CCCC[C@H]1C(=O)N(C)[C@@H](CCCC)C(=O)N[C@@H](CCCN)C(=O)NC(C(=O)NCC(N)=O)CSCC(=O)N[C@@H](Cc2ccc(O)cc2)C(=O)N(C)[C@@H](C)C(=O)N[C@@H](CC(N)=O)C(=O)N2CCC[C@H]2C(=O)N[C@@H](CC(N)=O)C(=O)N[C@@H](CC(C)C)C(=O)N2C[C@H](O)C[C@H]2C(=O)N[C@@H](Cc2c[nH]c3ccccc23)C(=O)N[C@@H](CO)C(=O)N[C@@H](Cc2c[nH]c3ccccc23)C(=O)N1C (stereo partly shown) [Example 9157] ({CH2CO}-Y[NMeA]NPNL[Hyp]WSW[NMeNle][NMeNle][Orn][ξC]G-NH2; thioether N-14) | 1 to 9.9 | 
7 | CCCC[C@H]1C(=O)N(C)[C@@H](CCCC)C(=O)N[C@@H](CCCN)C(=O)NC(C(=O)NCC(N)=O)CSCC(=O)N[C@@H](Cc2ccc(O)cc2)C(=O)N(C)[C@@H](C)C(=O)N[C@@H](CC(N)=O)C(=O)N2CCC[C@H]2C(=O)N[C@@H](CC(N)=O)C(=O)N[C@@H](CC(C)C)C(=O)N2C[C@H](O)C[C@H]2C(=O)N[C@@H](Cc2c[nH]c3ccccc23)C(=O)N[C@@H](CO)C(=O)N[C@@H](Cc2csc3ccccc23)C(=O)N1C (stereo partly shown) [Example 9158] ({CH2CO}-Y[NMeA]NPNL[Hyp]WS[Bta][NMeNle][NMeNle][Orn][ξC]G-NH2; thioether N-14) | 1 to 9.9 | 
8 | CCCC[C@H]1C(=O)N(C)[C@@H](CCCC)C(=O)N[C@@H](CC(C)C)C(=O)NC(C(=O)NCC(N)=O)CSCC(=O)N[C@@H](Cc2ccc(O)cc2)C(=O)N(C)[C@@H](C)C(=O)N[C@@H](CC(N)=O)C(=O)N2CCC[C@H]2C(=O)N[C@@H](CC(N)=O)C(=O)N[C@@H](CC(C)C)C(=O)N2CCC[C@H]2C(=O)N[C@@H](Cc2c[nH]c3ccccc23)C(=O)N[C@@H](CO)C(=O)N[C@@H](Cc2c[nH]c3ccccc23)C(=O)N1C (stereo partly shown) [Example 9159] ({CH2CO}-Y[NMeA]NPNLPWSW[NMeNle][NMeNle]L[ξC]G-NH2; thioether N-14) | 1 to 9.9 | 
9 | CCCC[C@H]1C(=O)N(C)[C@@H](CCCC)C(=O)N[C@@H](CC(C)C)C(=O)NC(C(=O)NCC(N)=O)CSCC(=O)N[C@@H](Cc2ccc(O)cc2)C(=O)N(C)[C@@H](C)C(=O)N[C@@H](CC(N)=O)C(=O)N2CCC[C@H]2C(=O)N[C@@H](CC(N)=O)C(=O)N[C@@H](CC(C)C)C(=O)N2CCC[C@H]2C(=O)N[C@@H](Cc2csc3ccccc23)C(=O)N[C@@H](CO)C(=O)N[C@@H](Cc2c[nH]c3ccccc23)C(=O)N1C (stereo partly shown) [Example 9160] ({CH2CO}-Y[NMeA]NPNLP[Bta]SW[NMeNle][NMeNle]L[ξC]G-NH2; thioether N-14) | 10 to 99.9 | 
10 | CCCC[C@H]1C(=O)N(C)[C@@H](CCCC)C(=O)N[C@@H](CC(C)C)C(=O)NC(C(=O)NCC(N)=O)CSCC(=O)N[C@@H](Cc2ccc(O)cc2)C(=O)N(C)[C@@H](C)C(=O)N[C@@H](CC(N)=O)C(=O)N2CCC[C@H]2C(=O)N[C@@H](CC(N)=O)C(=O)N[C@@H](CC(C)C)C(=O)N2CCC[C@H]2C(=O)N[C@@H](Cc2c[nH]c3ccccc23)C(=O)N[C@@H](CO)C(=O)N[C@@H](Cc2c[nH]c3ccccc23)C(=O)N1C (stereo partly shown) [Example 9161] ({CH2CO}-Y[NMeA]NPNLPWSW[NMeNle][NMeNle]L[ξC]G-NH2; thioether N-14) | 1 to 9.9 | 
11 | CCCC[C@H]1C(=O)N(C)[C@@H](CCCC)C(=O)N[C@@H](CCN)C(=O)NC(C(=O)NCC(N)=O)CSCC(=O)N[C@@H](Cc2ccc(O)cc2)C(=O)N(C)[C@@H](C)C(=O)N[C@@H](CC(N)=O)C(=O)N2CCC[C@H]2C(=O)N[C@@H](CC(N)=O)C(=O)N[C@@H](CC(C)C)C(=O)N2CCC[C@H]2C(=O)N[C@@H](Cc2c[nH]c3ccccc23)C(=O)N[C@@H](CO)C(=O)N[C@@H](Cc2c[nH]c3ccccc23)C(=O)N1C (stereo partly shown) [Example 9162] ({CH2CO}-Y[NMeA]NPNLPWSW[NMeNle][NMeNle][Dab][ξC]G-NH2; thioether N-14) | 1 to 9.9 | 
12 | CCCC[C@H]1C(=O)N(C)[C@@H](CCCC)C(=O)N[C@@H](CCN)C(=O)NC(C(=O)NCC(N)=O)CSCC(=O)N[C@@H](Cc2ccc(O)cc2)C(=O)N(C)[C@@H](C)C(=O)N[C@@H](CC(N)=O)C(=O)N2CCC[C@H]2C(=O)N[C@@H](CC(N)=O)C(=O)N[C@@H](CC(C)C)C(=O)N2CCC[C@H]2C(=O)N[C@@H](Cc2csc3ccccc23)C(=O)N[C@@H](CO)C(=O)N[C@@H](Cc2c[nH]c3ccccc23)C(=O)N1C (stereo partly shown) [Example 9163] ({CH2CO}-Y[NMeA]NPNLP[Bta]SW[NMeNle][NMeNle][Dab][ξC]G-NH2; thioether N-14) | 1 to 9.9 | 
13 | CCCC[C@H]1C(=O)N(C)[C@@H](CCCC)C(=O)N[C@@H](CCN)C(=O)NC(C(=O)NCC(N)=O)CSCC(=O)N[C@@H](Cc2ccc(O)cc2)C(=O)N(C)[C@@H](C)C(=O)N[C@@H](CC(N)=O)C(=O)N2CCC[C@H]2C(=O)N[C@@H](CC(N)=O)C(=O)N[C@@H](CC(C)C)C(=O)N2C[C@H](O)C[C@H]2C(=O)N[C@@H](Cc2c[nH]c3ccccc23)C(=O)N[C@@H](CO)C(=O)N[C@@H](Cc2c[nH]c3ccccc23)C(=O)N1C (stereo partly shown) [Example 9164] ({CH2CO}-Y[NMeA]NPNL[Hyp]WSW[NMeNle][NMeNle][Dab][ξC]G-NH2; thioether N-14) | 1 to 9.9 | 
14 | CCCC[C@H]1C(=O)N(C)[C@@H](CCCC)C(=O)N[C@@H](CCN)C(=O)NC(C(=O)NCC(N)=O)CSCC(=O)N[C@@H](Cc2ccc(O)cc2)C(=O)N(C)[C@@H](C)C(=O)N[C@@H](CC(N)=O)C(=O)N2CCC[C@H]2C(=O)N[C@@H](CC(N)=O)C(=O)N[C@@H](CC(C)C)C(=O)N2C[C@H](O)C[C@H]2C(=O)N[C@@H](Cc2c[nH]c3ccccc23)C(=O)N[C@@H](CO)C(=O)N[C@@H](Cc2csc3ccccc23)C(=O)N1C (stereo partly shown) [Example 9165] ({CH2CO}-Y[NMeA]NPNL[Hyp]WS[Bta][NMeNle][NMeNle][Dab][ξC]G-NH2; thioether N-14) | 1 to 9.9 | 
15 | CSCC[C@H]1C(=O)N2C[C@H](O)C[C@H]2C(=O)N[C@@H](CC(=O)O)C(=O)N[C@@H](C(C)C)C(=O)N(C)[C@@H](Cc2ccccc2)C(=O)N[C@@H](Cc2ccc(O)cc2)C(=O)N2C[C@H](O)C[C@H]2C(=O)N[C@@H](Cc2c[nH]c3ccccc23)C(=O)N[C@@H](Cc2ccc(O)cc2)C(=O)N[C@@H](CC(C)C)C(=O)N[C@H](C(=O)NCC(N)=O)CSCC(=O)N[C@@H](Cc2ccccc2)C(=O)N(C)[C@@H](Cc2ccccc2)C(=O)N1C [Example 9166] ({CH2CO}-F[NMeF][NMeM][Hyp]DV[NMeF]Y[Hyp]WYLCG-NH2; thioether N-13) | 1000 to 10000 | 
16 | CSCC[C@H]1C(=O)N2C[C@H](O)C[C@H]2C(=O)N[C@@H](CC(N)=O)C(=O)N[C@@H](C(C)C)C(=O)N(C)[C@@H](Cc2ccccc2)C(=O)N[C@@H](Cc2ccc(O)cc2)C(=O)N2C[C@H](O)C[C@H]2C(=O)N[C@@H](Cc2c[nH]c3ccccc23)C(=O)N[C@@H](Cc2ccc(O)cc2)C(=O)N[C@@H](CC(C)C)C(=O)N[C@H](C(=O)NCC(N)=O)CSCC(=O)N[C@@H](Cc2ccccc2)C(=O)N(C)[C@@H](Cc2ccccc2)C(=O)N1C [Example 9167] ({CH2CO}-F[NMeF][NMeM][Hyp]NV[NMeF]Y[Hyp]WYLCG-NH2; thioether N-13) |  | 1000
